“Also recorded” adds a separate entry of the source.
Experiments:
[1] = Fluorescence spectroscopy of labelled peptides with cardiolipin; format: binding
From the text: The peptides 2′,6′-Dmt-D-Arg-[…] (SS-19) and 2′,6′-Dmt-D-Arg-Phe-Lys-Ald-NH2 (SS-37) cationic peptides carry net positive charge at neutral pH. They are expected to associate with anionic phospholipid cardiolipin based on electrostatic interaction. The interaction of small peptides with lipid membranes can been studied using fluorescence spectroscopy (Surewicz and Epand, 1984). […] Polarity-sensitive fluorescent probes were incorporated into the peptides and fluorescence spectroscopy was used to determine if SS-19, SS-37 and SS-36 interact with CL.
The peptide 2′,6′-Dmt-D-Arg-Phe-(atn)Dap-NH2 (SS-19) contains anthraniloyl incorporated into diaminopropionic acid. Anthraniloyl derivatives fluoresce in the 410-420 nm range when excited at 320-330 nm (Hiratsuka T, 1983). The quantum yield of anthraniloyl derivatives is strongly dependent on the local environment, and can increase 5-fold going from water to 80% ethanol, together with a blue shift in the emission maxima (λ max) of <10 nm (Hiratsuka T, 1983). Fluorescence emission spectrum of SS-19 (1 μM) alone, and in the presence of increasing concentrations of CL (5 to 50 μg/ml), was monitored following excitation at 320 nm using Hitachi F-4500 fluorescence spectrophotometer.
The peptide 2′,6′-Dmt-D-Arg-Phe-Lys-Ald-NH2 (SS-37) contains an additional amino acid, aladan (Ald), which has been reported to be particularly sensitive to the polarity of its environment and it has been used to probe the electrostatic character of proteins (Cohen et al., 2002). When excited at 350 nm, λmax shifts from 542 nm in water to 409 nm in heptane, accompanied by a significant increase in quantal yield (Cohen et al., 2001). Fluorescence emission spectrum of SS-37 (1 μM) alone, and in the presence of increasing concentrations of CL, was monitored following excitation at 350 nm. Addition of CL (5 to 50 μg/ml) led to a 3-fold increase in quantal yield of SS-37 as well as a clear blue shift in λ max, from 525 nm without CL to 500 nm with 50 μg/ml CL (FIG. 11B).
The peptide 2′,6′-Dmt-D-Arg-Ald-Lys-NH2 (SS-36) contains Ald in place Phe^3 in SS-02. Fluorescence emission spectrum of SS-36 (1 μM) alone, and in the presence of increasing concentrations of CL, was monitored following excitation at 350 nm. SS-36 was the most sensitive to the addition of CL, with dramatic increase in quantal yield and blue shift observed with much lower added amounts of CL (1.25 to 5 μg/ml). The λmax shifted from 525 nm without CL to 500 nm with as little as 1.25 μg/ml CL, and quantal yield increased by more than 100-fold with the addition of 5 μg/ml of CL (FIG. 11C). […] Accordingly, aromatic-cationic peptides of the present disclosure are useful for the prevention or treatment of diseases or disorders characterized by dysregulation of cardiolipin.
Changes in the emission intensity of the [atn]SS-02 and the [ald]SS-02 were measured using a Hitachi F-4500 fluorescence spectrophotometer. The different solvents used to dissolve the various phospholipids (chloroform, methanol and ethanol) had negligible effect on the fluorescence spectrum of [atn]SS-02 and [ald]SS-02. All experiments were done in low ionic solution (deionized water) to optimize electrostatic interactions of peptides with phospholipids.
Increasing concentrations of cardiolipin (5, 10, 25, and 50 μg/mL) were added to 1 μM [atn]SS-02, and the emission intensity between 350 nm and 500 nm was measured.

[2] = target: T1, cytochrome c and cardiolipin (CL) (Equus caballus, UniProt P00004); test: Fluorescence quenching by cytochrome c in the presence of cardiolipin; format: binding, horse
T1 construct: from tissue; host or cells: horse heart
T1 sequence (P00004 2-105 limits assumed): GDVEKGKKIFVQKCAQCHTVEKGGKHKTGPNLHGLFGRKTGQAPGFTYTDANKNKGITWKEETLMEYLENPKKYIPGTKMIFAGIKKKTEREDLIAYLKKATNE
Method: Fluorescence emission of SS-19 (10 μM) was monitored in real time (Ex/Em=320 nm/420 nm) using Hitachi F-4500 fluorescence spectrophotometer. […] CL may potentiate the interaction between SS-19 and cytochrome c by serving as an anionic platform for the two cationic molecules.
The quenching by cytochrome c was not displaced by sequential additions of bovine serum albumin (500 μg/ml) (FIG. 13C, A+arrows).
SS-36 also contains the polarity-sensitive fluorescent amino acid aladan. […] Accordingly, aromatic-cationic peptides of the present disclosure are useful for the prevention or treatment of diseases or disorders characterized by dysregulation of cardiolipin and/or cytochrome c, and/or diseases or disorders characterized by dysregulation of the cardiolipin/cytochrome c interaction.
(§1) Interaction of SS peptides with horse heart cytochrome c in the absence or presence of free cardiolipin or cardiolipin/POPC (1:1) liposomes (prepared as described in Example 22) was examined by fluorescence quenching of [atn]SS-02 (λex/λem=320/420 nm) and [ald]SS-02 (λex/λem=360/510 nm) upon addition of cytochrome c (using a Hitachi F-4500 fluorescence spectrophotometer). The solvents used to dissolve cardiolipin and POPC had negligible effect on cytochrome c-dependent quenching of these peptides. All experiments were done in low ionic solution (deionized water) or 20 mM Hepes pH 7.4.

cytochrome c [3] = target: T2, cytochrome c (Equus caballus, UniProt P00004); test: Fluorescence quenching of labelled peptides by cytochrome c; format: binding, horse; set-up: from tissue; host or cells: horse heart; details: for change in λmax on quenching by cytochrome c / quenching of fluorescence by cytochrome c: Example 22; for quenching of fluorescence by cytochrome c: additions of cytochrome c (2 μM)
T2 sequence (P00004 2-105 limits assumed): as above
Method: Maximal fluorescence emission of SS-19 was monitored at 420 nm following excitation at 320 nm using Hitachi F-4500 fluorescence spectrophotometer.
The quenching by cytochrome c was not displaced by sequential additions of bovine serum albumin (FIG. 12C, A+arrows) (500 μg/ml). […] Accordingly, aromatic-cationic peptides of the present disclosure are useful for the prevention or treatment of diseases or disorders characterized by dysregulation of cytochrome c.
Fluorescence emission of SS-19 (10 μM) was monitored in real time (Ex/Em=320 nm/420 nm) using Hitachi F-4500 fluorescence spectrophotometer.
as §1

cytochrome c [4] = target: T2, cytochrome c; test: as above; format: binding, horse; set-up: from tissue; host or cells: horse heart; details: additions of 75 μg/ml BSA

Substance: 2′,6′-Dmt-D-Arg-Ald-Lys-NH2 [SS-36]
- increase in quantal yield on addition of CL ([1]; 1 μM peptide, 5 μg/ml CL, excitation 350 nm): more than 100 fold
- affinity compared among POPS, POPA, DPPG and cardiolipin ([1]; 1 μM peptide, 10 μg/mL phospholipid): Cardiolipin shows the highest affinity
- peptide fluorescence on addition of CL ([1]; CL 2.5 μg/ml): increase in SS-36 fluorescence
- emission maximum with cardiolipin after addition of cytochrome c [2]: 450 nm
- emission maximum with cardiolipin before addition of cytochrome c [2]: 510 nm
- quenching of fluorescence by cytochrome c in the presence of CL ([2]; CL 2.5 μg/ml, cytochrome c 2 μM): dramatic quenching
- change in λmax on quenching by cytochrome c (cytochrome c [3]): no change in λmax
- quenching of fluorescence by cytochrome c (cytochrome c [3]): concentration-dependent quenching

Substance: 2′,6′-Dmt-D-Arg-Phe-(atn)Dap-NH2 [SS-19]
- shift in λmax on addition of CL ([1]; 1 μM peptide, CL 5-50 μg/ml, excitation 320 nm): no significant shift in λmax
- increase in quantal yield on addition of CL ([1]; 1 μM peptide, CL 5 to 50 μg/ml): 2 fold
- emission intensity on addition of cardiolipin ([1]; 1 μM peptide, deionized water (Example 21)): increased the emission intensity of [atn]SS-02 in a concentration-dependent manner
- peptide fluorescence on addition of CL ([1]; 10 μM peptide, CL 50 μg/ml, Ex/Em 320/420 nm): increase in SS-19 fluorescence
- quenching of the fluorescent signal ([2]; 2 μM cytochrome c, 1 μM peptide, 10 μg/mL cardiolipin, 420 nm): ~50%
- extent of quenching by cytochrome c with CL compared to without CL ([2]; 10 μM peptide, CL 50 μg/ml, cytochrome c 2 μM): larger extent of quenching
- effect of cardiolipin on interaction between cytochrome c and peptide ([2]; free cardiolipin or cardiolipin liposomes): potentiated by either free cardiolipin or cardiolipin liposomes in a dose-dependent manner
- dependence of interaction on amount of cytochrome c (cytochrome c [3]): linearly dependent on the amount of cytochrome c added
- quenching of the fluorescent signal (cytochrome c [3]; 2 μM cytochrome c, 1 μM peptide, absence of cardiolipin, 420 nm): ~20%
- quenching of peptide fluorescence by cytochrome c (cytochrome c [3]; 10 μM peptide, 2 μM cytochrome c, Ex/Em 320/420 nm): similarly quenched by sequential addition of 2 μM cytochrome c; also recorded: immediate quenching of the fluorescence signal
- displacement of cytochrome c quenching by bovine serum albumin (cytochrome c [3]; BSA 500 μg/ml): not displaced
- change in λmax on quenching by cytochrome c (cytochrome c [3]): no change in λmax
- quenching of fluorescence by cytochrome c (cytochrome c [3]): concentration-dependent quenching
- reversal of cytochrome c quenching by BSA (cytochrome c [4]): did not reverse quenching

Reference: patent US10808008B2, “Aromatic-cationic peptides and uses of same” (Cornell University, priority 2012, dated 2020)
